According to patent publication US12042499B2, “Administration of aurora kinase inhibitor and chemotherapeutic agents” (Millennium Pharmaceuticals, Inc., priority 2015, dated 2024):

Assays:
Format in all cases: in vivo, female Athymic NCr nu/nu mice
[1] = system: NCI-H82 small cell lung tumor; assay: NCI-H82 xenograft model study 1: alisertib and carboplatin
Experimental: NCI-H82 1: […] Those animals selected with tumors in the proper volume range were randomized into 9 treatment and control groups (n=10/group) so that the median tumor volumes on the first day of treatment were as close as possible (206-219 mm^3). […] The suspension was diluted to 4 mg/mL with 2% sodium bicarbonate (NaHCO3) in WFI. The final composition of the alisertib vehicle was 10% HPBCD/1% NaHCO3 in WFI. The 4 mg/mL solution was diluted to 2 mg/mL with complete vehicle for the lower dose. The alisertib dosing formulations were stored in brown bottles at room temperature during the dosing period. […] A 10 mg/mL stock solution of carboplatin (Hospira, Inc.) was diluted each day of treatment with saline. […] Tumors were measured twice weekly using vernier calipers. […] Tumor size and body weight were measured approximately twice a week for the duration of the study. […] Tumor growth continued to be monitored after the dosing period in some studies. […] For each animal, the log tumor volume at the day of treatment initiation is subtracted from the log tumor volume on the subsequent days. This difference vs. time is used to calculate an area under the curve (AUC) for each animal using the trapezoid rule. In instances when an animal in a treatment group is removed early from the study, the last observed tumor value is carried forward through all subsequent time points. The synergy score for the combination of agents A and B is defined as 100*(mean(AUCAB)-mean(AUCA)-mean(AUCB)+mean(AUCctl))/mean(AUCctl): where AUCAB, AUCA, AUCB, and AUCctl are the AUC values for animals in the combination group, the A group, the B group, and the control group, respectively. The standard error of the synergy score is computed based on the variation in the AUC values among the animals. […] If the P-value is above 0.05, then the combination is considered to be additive. If the P-value is below 0.05, and the synergy score is less than zero, then the combination is considered to be synergistic. If the P-value is below 0.05 and the synergy score was greater than zero, but the mean AUC for the combination was […] than the lowest mean AUC among the two single agent treatments, then the combination was sub-additive. If the P-value is below 0.05 and if the synergy score was greater than zero, and the mean AUC for the combination was greater than the mean AUC for at least one of the single agent treatments, then the combination was antagonistic. […] In the combination treatment groups alisertib was administered first, followed immediately by the administration of carboplatin. One group served as a vehicle-treated control group (Group 1) receiving PO treatment with the vehicle used for administration of alisertib in treatment groups on a QDx21 schedule.

[2] = system: NCI-H82 small cell lung tumor; assay: NCI-H82 xenograft model study 2: alisertib and cisplatin
From the text: NCI-H82 2: A thirty-to-forty mg fragment of NCI-H82 small cell lung tumor, propagated in an in vivo passage, was implanted SC in the area of the right flank of female Athymic NCr nu/nu mice (age 5 weeks, Charles River Laboratories, Wilmington, MA) using a 12-gauge trocar needle. Tumors were allowed to reach 100-245 mm^3 in volume before the start of treatment. A sufficient number of mice were implanted so that tumors in a volume range as narrow as possible were selected for the trial on the day of treatment initiation (day 14 after tumor implantation, designated as SD, or Day 0). Those animals selected with tumors in the proper volume range were randomized into 9 treatment and control groups (n=10/group) so that the median tumor volumes on the first day of treatment were as close as possible (196-198 mm^3).
(§1) An 8 mg/mL suspension of alisertib was formulated weekly by adding a half volume of 20% HPBCD in water for injection (WFI) to the alisertib powder, then mixing by vortexing, and sonicating for one minute. The suspension was diluted to 4 mg/mL with 2% sodium bicarbonate (NaHCO3) in WFI. The final composition of the alisertib vehicle was 10% HPBCD/1% NaHCO3 in WFI. The 4 mg/mL solution was diluted to 2 mg/mL with complete vehicle for the lower dose. The alisertib dosing formulations were stored in brown bottles at room temperature during the dosing period. All alisertib injections were administered on the basis of exact animal body weight on each day of treatment, using an injection volume of 0.05 mL/10 g body weight.
(§2) A 1 mg/mL stock solution of cisplatin (Cisplatin Injection, PCH […]) was diluted each day of treatment with saline to 0.8 and 0.4 mg/mL. Cisplatin injections were administered on the basis of exact animal body weight on each day of treatment, using an injection volume of 0.05 mL/10 g body weight.
(§3) Tumors were measured twice weekly using vernier calipers. Tumor volumes were calculated using standard procedures V=W^2×L/2). When mean tumor volumes reached approximately 206-219 mm^3 for NCI-H82 1, 196-198 mm^3 for NCI-H82 2, or 169-174 mm^3 for NCI-H69, mice were randomized into groups of n=10/arm as described in the tables below, and injected with vehicle, alisertib or agents (cisplatin, or carboplatin), or the combination of alisertib plus one of the agents, at various doses and schedules as described below in Tables 1a, 2a and 3a. Tumor size and body weight were measured approximately twice a week for the duration of the study. […] Tumor growth continued to be monitored after the dosing period in some studies. […]
(§4) Measurements from the day of treatment initiation to Day 20 or Day 21 following treatment initiation are analyzed as specified in Tables below. […]

[3] = system: NCI-H69 small cell lung tumor; assay: NCI-H69 xenograft model: alisertib and cisplatin
From the text: NCI-H69: A thirty-to-forty mg fragment of NCI-H69 small cell lung tumor, propagated in an in vivo passage, was implanted SC in the area of the right flank of female Athymic NCr nu/nu nice (age 6 weeks, Charles River Laboratories, Frederick, MD) using a 12-gauge trocar needle. Tumors were allowed to reach 100-245 mm^3 in volume before the start of treatment. A sufficient number of mice were implanted so that tumors in a volume range as narrow as possible were selected for the trial on the day of treatment initiation (day 24 after tumor implantation, designated as SD, or Day 0). Those animals selected with tumors in the proper volume range were randomized into 9 treatment and control groups (n=10/group) so that the mean tumor volumes on the first day of treatment were as close as possible (169-174 mm^3).
as §1, §2, §3, §4

`COc1cc(Nc2ncc3c(n2)-c2ccc(Cl)cc2C(c2c(F)cccc2OC)=NC3)ccc1C(=O)O` [Alisertib, 4-{[9-chloro-7-(2-fluoro-6-methoxyphenyl)-5H-pyrimido[5,4-d][2]benzazepin-2-yl]amino}-2-methoxybenzoic acid] was tested, and the “Tumor Volume Day 21” value ([1]; 10 mg/kg Alisertib QDx21 PO) was 1701 mm^3, the “Tumor Volume Day 21” value ([1]; 20 mg/kg Alisertib QDx21 PO) was 1640 mm^3 and the “Tumor Volume Day 20” value ([2]; 10 mg/kg Alisertib QDx21 PO) was 1578 mm^3. For the same molecule, the “Tumor Volume Day 20” value ([2]; 20 mg/kg Alisertib QDx21 PO) was 1461 mm^3, the “Tumor Volume Day 20” value ([3]; 10 mg/kg Alisertib QDx21 PO) was 374 mm^3 and the “Tumor Volume Day 20” value ([3]; 20 mg/kg Alisertib QDx21 PO) was 149 mm^3.
`N.N.O=C([O-])C1(C(=O)[O-])CCC1.[Pt+2]` [Carboplatin, carboplatin] was tested, and the “Tumor Volume Day 21” value ([1]; 25 mg/kg Carboplatin Q7Dx3 IP) was 1373 mm^3 and the “Tumor Volume Day 21” value ([1]; 75 mg/kg Carboplatin Q7Dx3 IP) was 965 mm^3.
For `N.N.[Cl][Pt][Cl]` [Cisplatin, cisplatin], the “Tumor Volume Day 20” value ([2]; 2 mg/kg Cisplatin Q4Dx3 IP) was 1429 mm^3, the “Tumor Volume Day 20” value ([2]; 4 mg/kg Cisplatin Q4Dx3 IP) was 1270 mm^3 and the “Tumor Volume Day 20” value ([3]; 2 mg/kg Cisplatin Q4Dx3 IP) was 604 mm^3. For the same molecule, the “Tumor Volume Day 20” value ([3]; 4 mg/kg Cisplatin Q4Dx3 IP) was 300 mm^3.
